Data reported in PubChem BioAssay AID1053154 (Broad Institute, 2014).

System: HepG2, simvastatin, LDLR mRNA qPCR, 6 h
Experiment: LDLR mRNA change in statin-treated cells, late-stage follow-up, mechanism study for Trib1 inducer project, cell-based, HepG2, RT-PCR, simvastatin, cherry-pick (AID 1053154)
Conditions: active compounds read high

Row | SMILES | fold change
1 | CN1C(=O)c2cc(NC(=O)c3ccc(C(F)(F)F)cc3)ccc2OC[C@@H]2O[C@H](CC(=O)NC3Cc4ccccc4C3)CC[C@@H]21 | 2
2 | CN1C(=O)c2cc(NC(=O)c3ccc(C(F)(F)F)cc3)ccc2OC[C@@H]2O[C@@H](CC(=O)NC3Cc4ccccc4C3)CC[C@@H]21 | 10
